Here are results for one molecule from US6562844B2, “Oxazolidinone combinatorial libraries, compositions and methods of preparation” (Pharmacia & Upjohn Company, priority 1998, dated 2003).

This assay relates to S. aureus. The experiment in a line: Antimicrobial activity MIC, microdilution whole cell assay, S. aureus. It counts as cell-based. Conditions: Staphylococcus aureus; standard whole cell assay; read-out: MIC against S. aureus. As to the method: Assay Protocol for Antimicrobial Activity. Minimum inhibitory concentrations (MICs) were determined using the microdilution method in 96-well format plates. Compounds were suspended in DMSO at 5 or 10 mg/ml and stored at 4° C. until used. They were diluted in Mueller-Hinton Broth (MHB) or Trypticase Soy Broth (TSB) and used for MIC determination. The range of concentrations tested was 64-0.0625 μg/ml final concentration using a two-fold dilution system.
The inoculum was prepared from cells grown on Trypticase Soy Agar (TSA) and incubated overnight at 35° C., 5 to 10 colonies were used to inoculate MHB or TSB broths, and the culture was incubated overnight at 35° C. The overnight culture was diluted 1:10, incubated for one hour at 35° C., diluted to the appropriate inoculum size and applied to the wells containing broth and test compound. Inoculum sizes were 1×10^5 to 5×10^5 CFU/ml. Strains used included P. aeruginosa VPAE1001, E. faecium V VEFA1001, E. faecium VanA VEFA1002, S. aureus VSAU1003, S. aureus MRSA VSAU1004, E. coli VEC05, and E. coli (arc-) VEC05.
Plates were incubated at 35° C. for 48 hours and MIC were recorded after 18 hours of incubation, for bacteria, and 48 for yeasts.

Each structure is given as a SMILES string. In brackets after ≈: the same amount, converted by molar mass.

As for `CON=Cc1ccc(/C=C/C(=O)NC[C@H]2CN(c3ccc(C(N)=O)c(F)c3)C(=O)O2)cc1`, the minimal inhibitory concentration (MIC) is about 0.5 µg/mL (≈ 1.14 µM).
